Laboratory results: US5552267A, “Solution for prolonged organ preservation” (priority 1994, dated 1996)

Columns and labels:
[1] = tested on: nitric oxide production in heart; assay: direct measurement of coronary vascular and endocardial NO with porphyrinic microsensor; set-up: species or system rat; conditions: transplanted hearts
Method: Direct measurement of coronary vascular and endocardial nitric oxide synthesis were made with a porphyrinic microsensor^13 using differential pulse voltammetry or amperometry. Rat hearts were explanted and preserved as described above, and studied fresh (no preservation/transplantation) or after hypothermic preservation in lactated Ringer's (LR) solution, heterotopic transplantation, and 10 minutes of reperfusion. The coronary vasculature was flushed free of blood with LR followed by 4 ml of LR supplemented with L-Arg (2 mM) and bradykinin ([…], Sigma), which was recycled (1 ml/min) through the coronary vasculature by flushing down the cross-clamped aortic root. Aliquots of perfusate were immediately transferred to an anaerobic environment for measurements and compared to an aqueous nitric oxide reference. Differential pulse voltammograms were obtained using a sensor (working electrode), saturated calomel electrode reference, and platinum wire-auxiliary electrode, with a pulse amplitude of 40 mV. Endocardial NO was measured by implanting the sensor in the septal endocardium of a freshly explanted or preserved/transplanted heart, and after the baseline stabilization, […] bradykinin was applied and NO release continuously monitored by amperometry at constant potential of 0.63 V.

[2] = tested on: neutrophil infiltration of lung graft; assay: lung graft myeloperoxidase assay, cGMP series; type: in vivo, rat; conditions: 6 h in EC then transplantation
Method: Thirty minutes following restoration of blood flow, transplanted lungs were excised, rinsed briskly in physiologic saline, and snap frozen in liquid nitrogen until the time of assay. These lungs were then homogenized in phosphate buffer (50 mM; pH 6.0, 5 ml/gm of tissue) containing hexadecyltrimethylammonium bromide (0.5%; HTAB, [Sigma]) and frozen at -80° C. The myeloperoxidase assay was performed, as described^32, by thawing the sample, centrifuging at 40,000 g for 15 minutes at 4° C., and decanting the supernatant, which was assayed for myeloperoxidase activity using standard chromogenic spectrophotometric technique: test sample (0.03 ml) was added to sample buffer (0.97 ml of 50 mM phosphate buffer, pH 6.0) containing O-dianisidine dihydrochloride (Sigma), hydrogen peroxide (0.006%), and change in absorbance at 460 nm was measured over 1 min (increase in OD was linear over this time interval).

[3] = tested on: graft tissue oxidant stress; assay: thiobarbituric acid reactive substances (TBARs); type: in vivo, rat; conditions: NTG in EC, 6 h
Method: Thirty minutes following ligation of the native right pulmonary artery, or at the time of recipient death, transplanted lungs were removed, rinsed briskly in physiologic saline, and snap frozen in liquid nitrogen until the time of myeloperoxidase or TBARs assay.
The assay was performed by homogenizing tissue in 1.15% KCl (10 ml/gm of tissue). To 0.2 ml of 10% (w/v) tissue homogenate, the following was added; 0.2 mL of 8.1% sodium dodecyl sulfate (SDS; Sigma), 1.5 mL of 20% acetic acid solution (pH 3.5), 1.5 mL of 0.8% aqueous solution of thiobarbituric acid (Sigma), and 0.6 mL of double distilled water. This mixture was heated to 95° C. for 60 minutes followed by rapid cooling to room temperature. An organic extraction was performed by adding 1.0 mL of double distilled water and 5.0 mL of n-butanol:pyridine (15:1, v/v), vortexing, and then centrifuging at 4000 rpm for 10 minutes. The water-immiscible (organic) layer was recovered for measurement of absorbance at 532 nm. Experiments were performed using 1,1,3,3,-tetramethoxypropane as a standard, with the level of lipid peroxides expressed as nmol of malondialdehyde (MDA)/mg protein. Protein content was determined by the method of Lowry et. al^38.

## Nc1nc2c(nc(Br)n2[C@@H]2O[C@@H]3COP(=O)(O)O[C@H]3[C@H]2O)c(=O)[nH]1 [8-Br-cGMP, 8-bromoguanosine-3'5' cyclic monophosphate]
[1]
  effect on NO levels: did not alter NO levels
[2]
  myeloperoxidase activity (dAbs 460 nm/min): 1.75±0.13 dAbs 460 nm/min

## O=[N+]([O-])OCC(CO[N+](=O)[O-])O[N+](=O)[O-] [NTG, nitroglycerin]
[3]
  graft oxidant stress, TBARs: reduced graft oxidant stress
